Data from patent publication US10144694B2, “Methods for preparing phenolic branched chain alkyl fatty acids or esters thereof and methods for killing microorganisms” (The United States of America, as Represented by the …, priority 2016, dated 2018).
In brackets after ≈: the same amount, converted by molar mass. Read-outs that look alike come from different tables or passages of the source.

What was measured:
[1] = test system: Listeria innocua ATCC 33090; experiment: MIC/MBC micro-dilution; assay type: cell-based
[2] = test system: Listeria innocua ATCC 33090; experiment: Antimicrobial test, 5 min treatment, plate count; assay type: cell-based; details: 0.1%
Experimental: Since the solutions contained 10% of ethanol, ethanol (10%) along with water were used as references. The bacteria and the solutions were vortexed and incubated at ambient temperature ([…]) for 5 min before immediately being plated (diluted when needed) on TSA to determine the survival of the bacteria. After 24 h at 37° C., colonies on the plates were counted.
Statistical analysis: Data on antimicrobial test were subjected to statistical analysis using SAS Version 8.2 (SAS Institute, Cary, N.C.). The Duncan's multiple range test was used for the treatment effects.

[3] = Listeria innocua, ATCC33090, 24 h

Row | SMILES | MBC ([1]; Listeria innocua, ATCC33090) [µg/mL] | MIC [1, 3] [µg/mL] | further results
1 | Cc1ccc(C(C)C)cc1O [Carvacrol] | 454 (≈ 3.03 mM) | 233 to 454 (≈ 1.55 to 3.03 mM) | 
2 | CCCCCCCC/C=C\CCCCCCCC(=O)O [OLA, oleic acid] |  |  | Reduction of population of L. innocua [2]: 3.5 logs CFU/mL
3 | Cc1ccc(C(C)C)c(O)c1 [Thymol] |  |  | MIC ([1]; ATCC33090, Listeria innocua ATCC 33090, 24 h at 37° C., read-out: MIC): 233 to 454 µg/mL (≈ 1.55 to 3.03 mM); MBC ([1]; ATCC33090, Listeria innocua ATCC 33090, read-out: MBC): > 454 µg/mL
4 | Oc1ccccc1 [Phenol, phenol] | > 454 | > 454 | Effect on population of L. innocua [2]: no significant effect
